Measurements taken from patent publication US20240382483A1, “HETEROCYCLIC EGFR INHIBITORS FOR USE IN THE TREATMENT OF CANCER” (Blueprint Medicines Corporation, priority 2021, published 2024).

Columns and labels:
[1] = biological target: T1, intracellular phosphorylation of EGFR in NCI-H1975 cell line that harbors the EGFR L858R T790M mutations (Homo sapiens, UniProt P00533, L858R/T790M); test: NCI-H1975 pEGFR AlphaLISA assay; format: cell-based; conditions: NCI-H1975 cells (EGFR L858R T790M), p-EGFR (Tyr1068), 4-5 hours incubation; read-out: Ext pEGFR H1975 GMean IC50 (nM) Protocol: @Pharmaron AlphaLISA (Num)
T1 construct: NCI-H1975 cell line that harbors the EGFR L858R T790M mutations (ATCC, CRL-5908); host or cells: NCI-H1975
T1 sequence (P00533 25-1210 T790M/L858R): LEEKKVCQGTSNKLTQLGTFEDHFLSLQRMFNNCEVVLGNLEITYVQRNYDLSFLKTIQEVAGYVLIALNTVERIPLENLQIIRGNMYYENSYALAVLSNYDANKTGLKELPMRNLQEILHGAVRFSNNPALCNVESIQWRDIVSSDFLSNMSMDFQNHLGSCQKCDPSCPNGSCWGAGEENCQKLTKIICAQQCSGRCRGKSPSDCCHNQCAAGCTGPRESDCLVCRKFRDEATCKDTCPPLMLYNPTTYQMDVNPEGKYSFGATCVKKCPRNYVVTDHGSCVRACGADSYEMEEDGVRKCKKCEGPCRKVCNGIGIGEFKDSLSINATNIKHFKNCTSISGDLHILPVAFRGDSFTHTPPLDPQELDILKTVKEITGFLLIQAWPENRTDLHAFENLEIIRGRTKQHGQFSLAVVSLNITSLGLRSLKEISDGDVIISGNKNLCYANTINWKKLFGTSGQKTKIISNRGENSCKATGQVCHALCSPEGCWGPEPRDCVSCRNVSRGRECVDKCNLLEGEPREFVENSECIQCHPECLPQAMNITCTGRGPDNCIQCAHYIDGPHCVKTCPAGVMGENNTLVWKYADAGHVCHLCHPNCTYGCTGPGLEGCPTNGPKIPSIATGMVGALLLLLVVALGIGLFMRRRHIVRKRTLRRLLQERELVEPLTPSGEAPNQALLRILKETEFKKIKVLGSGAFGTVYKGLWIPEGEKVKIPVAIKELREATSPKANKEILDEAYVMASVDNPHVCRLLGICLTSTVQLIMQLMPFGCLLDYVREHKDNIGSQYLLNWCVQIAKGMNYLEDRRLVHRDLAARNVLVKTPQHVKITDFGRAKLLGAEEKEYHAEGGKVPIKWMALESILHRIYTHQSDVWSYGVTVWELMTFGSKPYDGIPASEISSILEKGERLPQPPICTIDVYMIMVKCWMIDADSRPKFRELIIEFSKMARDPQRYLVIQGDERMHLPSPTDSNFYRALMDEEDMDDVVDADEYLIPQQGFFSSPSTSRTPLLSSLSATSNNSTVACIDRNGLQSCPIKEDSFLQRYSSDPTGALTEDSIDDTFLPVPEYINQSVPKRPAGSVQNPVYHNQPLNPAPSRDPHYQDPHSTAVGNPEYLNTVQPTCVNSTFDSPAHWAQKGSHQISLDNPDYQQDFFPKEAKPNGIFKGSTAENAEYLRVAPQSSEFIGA
Description: On the next day, the test compounds and DMSO control were added into H1975 cell plate followed by incubation at 37C/5% CO2 for 4-5 hours. […] Then 5 μL of a donor bead mix was added to each well followed by overnight incubation at room temperature in dark. On the next day, the plate was read at a compatible plate reader to obtain pEGFR signal. Percent of pEGFR inhibition was plotted against log concentration of compounds to generate IC50 values.

EGFR (L858R T790M C797S) = biological target: T2, EGFR (L858R T790M C797S) (Homo sapiens, UniProt P00533, C797S/L858R/T790M); test: Biochemical EGFR inhibition assay (Caliper mobility shift), EGFR LRTMCS; conditions: LRTMCS (PH) IC50 (nM) @ 1 mM ATP (Num), EGFR LRTMCS mutant
T2 construct: purchased SignalChem E10-122VG
T2 sequence (P00533 25-1210 T790M/C797S/L858R): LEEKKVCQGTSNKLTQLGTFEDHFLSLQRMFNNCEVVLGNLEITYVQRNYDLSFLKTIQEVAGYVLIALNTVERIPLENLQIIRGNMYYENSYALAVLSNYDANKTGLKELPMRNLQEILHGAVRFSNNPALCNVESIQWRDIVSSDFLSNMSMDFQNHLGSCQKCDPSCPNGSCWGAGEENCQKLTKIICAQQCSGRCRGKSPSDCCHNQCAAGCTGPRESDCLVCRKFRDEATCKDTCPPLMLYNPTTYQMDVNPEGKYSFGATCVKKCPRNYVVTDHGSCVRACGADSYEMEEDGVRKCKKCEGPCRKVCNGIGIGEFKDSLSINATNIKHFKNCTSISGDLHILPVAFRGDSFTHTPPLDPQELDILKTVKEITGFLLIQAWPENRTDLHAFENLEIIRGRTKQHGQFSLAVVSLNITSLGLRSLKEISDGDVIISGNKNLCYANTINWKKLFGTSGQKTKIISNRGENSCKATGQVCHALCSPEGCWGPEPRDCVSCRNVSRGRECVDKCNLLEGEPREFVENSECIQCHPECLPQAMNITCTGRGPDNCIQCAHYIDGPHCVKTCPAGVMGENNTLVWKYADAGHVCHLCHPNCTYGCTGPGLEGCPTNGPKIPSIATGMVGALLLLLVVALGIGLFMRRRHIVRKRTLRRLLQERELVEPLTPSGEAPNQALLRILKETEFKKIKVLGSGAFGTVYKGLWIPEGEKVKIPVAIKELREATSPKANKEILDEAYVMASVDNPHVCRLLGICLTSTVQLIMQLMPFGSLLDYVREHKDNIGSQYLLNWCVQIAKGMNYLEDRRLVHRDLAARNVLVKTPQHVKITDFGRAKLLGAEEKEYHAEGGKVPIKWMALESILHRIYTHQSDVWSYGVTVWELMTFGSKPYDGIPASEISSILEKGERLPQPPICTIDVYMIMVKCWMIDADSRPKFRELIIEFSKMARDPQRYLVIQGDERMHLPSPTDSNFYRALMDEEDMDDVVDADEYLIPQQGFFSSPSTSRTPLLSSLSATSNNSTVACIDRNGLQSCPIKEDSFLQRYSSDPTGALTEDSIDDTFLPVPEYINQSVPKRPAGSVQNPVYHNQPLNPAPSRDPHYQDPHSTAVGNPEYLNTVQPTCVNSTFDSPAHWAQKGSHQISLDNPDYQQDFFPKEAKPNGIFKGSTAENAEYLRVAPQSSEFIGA
How it was run: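 Each enzyme was allowed to phosphorylate 10–20% of its peptide at 25° C. before EDTA (35 mM) quench. Separated substrate and product peaks were measured by mobility shift, giving apparent IC50 values.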

Structure (SMILES) | IC50 [1] | IC50 (EGFR (L858R T790M C797S))
CC(C)c1ncc(-c2ccn(C)n2)c2cnc(Nc3ccnc(N4CC[C@@H](O)[C@@](C)(F)C4)n3)cc12 [Example 11, (3S,4R)-3-fluoro-1-(4-((5-isopropyl-8-(1-methyl-1H-pyrazol-3-yl)-2,6-naphthyridin-3-yl)amino)pyrimidin-2-yl)-3-methylpiperidin-4-ol] | 30 to 50 nM | 20 to 30 nM
CC(C)c1cnc(N2CC(O)C2)c2cnc(Nc3ccnc(N4CCC5(CCO5)CC4)n3)cc12 [Example 117, 1-(6-((2-(1-oxa-7-azaspiro[3.5]nonan-7-yl)pyrimidin-4-yl)amino)-4-isopropyl-2,7-naphthyridin-1-yl)azetidin-3-ol] | > 50 nM | 15 to 20 nM
CC(C)c1cnc(-c2cnn(C)c2)c2cnc(Nc3ccnc(N4CC[C@@H](O)[C@@](C)(F)C4)n3)cc12 [Example 9, (3S,4R)-3-fluoro-1-(4-((5-isopropyl-8-(1-methyl-1H-pyrazol-4-yl)-2,7-naphthyridin-3-yl)amino)pyrimidin-2-yl)-3-methylpiperidin-4-ol] | 30 to 50 nM | < 15 nM
CC(C)c1cnc(N2CC3(CCO3)C2)c2cnc(Nc3ccnc(N4CC[C@@H](O)[C@@](C)(F)C4)n3)cc12 [Example 54, (3S,4R)-3-fluoro-1-(4-((5-isopropyl-8-(1-oxa-6-azaspiro[3.3]heptan-6-yl)-2,7-naphthyridin-3-yl)amino)pyrimidin-2-yl)-3-methylpiperidin-4-ol] | 20 to 30 nM | 15 to 20 nM
[2H]C([2H])([2H])O[C@H]1CN(c2ncc(C(C)C)c3cc(Nc4ccnc(N5CC[C@@H](O)[C@@](C)(F)C5)n4)ncc23)[C@@H]1C [Example 108, (3S,4R)-3-fluoro-1-(4-((5-isopropyl-8-((2R,3S)-3-(methoxy-d3)-2-methylazetidin-1-yl)-2,7-naphthyridin-3-yl)amino)pyrimidin-2-yl)-3-methylpiperidin-4-ol] | 10 to 20 nM | < 15 nM
CC(C)c1cnc(N2C[C@@H](F)[C@@H](F)C2)c2cnc(Nc3ccnc(N4CC[C@@H](O)[C@@](C)(F)C4)n3)cc12 [Example 56, (3S,4R)-1-(4-((8-(cis-3,4-difluoropyrrolidin-1-yl)-5-isopropyl-2,7-naphthyridin-3-yl)amino)pyrimidin-2-yl)-3-fluoro-3-methylpiperidin-4-ol] | > 50 nM | < 15 nM
CC(C)c1ccc(N2CC(C)(c3nnco3)C2)c2cnc(Nc3ccnc(N4CC[C@@H](O)[C@@](C)(F)C4)n3)cc12 [Example 113, (3S,4R)-3-fluoro-1-(4-((5-isopropyl-8-(3-methyl-3-(1,3,4-oxadiazol-2-yl)azetidin-1-yl)isoquinolin-3-yl)amino)pyrimidin-2-yl)-3-methylpiperidin-4-ol] | 10 to 20 nM | 20 to 30 nM

More lines, now with the values ahead:

IC50 [1] | IC50 (EGFR (L858R T790M C797S)) | Structure (SMILES)
< 10 nM | < 15 nM | CO[C@H]1CCN(c2nccc(Nc3cc4c(C(C)C)cnc(N5CC[C@H]5C)c4cn3)n2)C[C@H]1OCCO (single isomer, unassigned) [Example 167, 2-(((3R,4S)-1-(4-((5-isopropyl-8-((R)-2-methylazetidin-1-yl)-2,7-naphthyridin-3-yl)amino)pyrimidin-2-yl)-4-methoxypiperidin-3-yl)oxy)ethan-1-ol or 2-(((3S,4R)-1-(4-((5-isopropyl-8-((R)-2-methylazetidin-1-yl)-2,7-naphthyridin-3-yl)amino)pyrimidin-2-yl)-4-methoxypiperidin-3-yl)oxy)ethan-1-ol]
> 50 nM | < 15 nM | CC(C)c1cnc(N2CC3(CCS3(=O)=O)C2)c2cnc(Nc3ccnc(N4CC[C@@](C)(O)[C@@H](F)C4)n3)cc12 (single isomer, unassigned) [Example 175, 6-(6-((2-((3S,4R)-3-fluoro-4-hydroxy-4-methylpiperidin-1-yl)pyrimidin-4-yl)amino)-4-isopropyl-2,7-naphthyridin-1-yl)-1-thia-6-azaspiro[3.3]heptane 1,1-dioxide or 6-(6-((2-((3R,4S)-3-fluoro-4-hydroxy-4-methylpiperidin-1-yl)pyrimidin-4-yl)amino)-4-isopropyl-2,7-naphthyridin-1-yl)-1-thia-6-azaspiro[3.3]heptane 1,1-dioxide]
30 to 50 nM | 30 to 100 nM | CC(C)c1cnc(N2CC[C@H]2C)c2cnc(Nc3ccnc(N4CC[C@H](OCCN(C)C)[C@H](F)C4)n3)cc12 [Example 202, N-(2-((3R,4S)-4-(2-(dimethylamino)ethoxy)-3-fluoropiperidin-1-yl)pyrimidin-4-yl)-5-isopropyl-8-((R)-2-methylazetidin-1-yl)-2,7-naphthyridin-3-amine]
20 to 30 nM | < 15 nM | CO[C@H]1CCN(c2nccc(Nc3cc4c(C(C)C)cnc(N5CC[C@H]5CN)c4cn3)n2)C[C@H]1F [Example 165, 8-((S)-2-(aminomethyl)azetidin-1-yl)-N-(2-((3R,4S)-3-fluoro-4-methoxypiperidin-1-yl)pyrimidin-4-yl)-5-isopropyl-2,7-naphthyridin-3-amine]
20 to 30 nM | < 15 nM | CC(C)c1cnc(N2C[C@H](O)[C@H]2C)c2cnc(Nc3ccnc(N4C[C@@H](F)[C@@H](O)C(C)(C)C4)n3)cc12 (single isomer, unassigned) [Example 145, (4S,5R)-5-fluoro-1-(4-((8-((2R,3S)-3-hydroxy-2-methylazetidin-1-yl)-5-isopropyl-2,7-naphthyridin-3-yl)amino)pyrimidin-2-yl)-3,3-dimethylpiperidin-4-ol or (4R,5S)-5-fluoro-1-(4-((8-((2R,3S)-3-hydroxy-2-methylazetidin-1-yl)-5-isopropyl-2,7-naphthyridin-3-yl)amino)pyrimidin-2-yl)-3,3-dimethylpiperidin-4-ol]
> 50 nM | 20 to 30 nM | C[C@@H]1CCN1c1ncc([C@@H](C)C(=O)N(C)C)c2cc(Nc3ccnc(N4CC[C@@H](O)[C@@](C)(F)C4)n3)ncc12 (single isomer, unassigned) [Example 185, (R)-2-(6-((2-((3S,4R)-3-fluoro-4-hydroxy-3-methylpiperidin-1-yl)pyrimidin-4-yl)amino)-1-((R)-2-methylazetidin-1-yl)-2,7-naphthyridin-4-yl)-N,N-dimethylpropanamide or (S)-2-(6-((2-((3S,4R)-3-fluoro-4-hydroxy-3-methylpiperidin-1-yl)pyrimidin-4-yl)amino)-1-((R)-2-methylazetidin-1-yl)-2,7-naphthyridin-4-yl)-N,N-dimethylpropanamide]
10 to 20 nM | 15 to 20 nM | CO[C@H]1CCN(c2cc(Nc3cc4c(C(C)C)ccc(N5CC(n6ccnn6)C5)c4cn3)ccn2)C[C@@H]1O (single isomer, unassigned) [Example 127, (3S,4S)-1-(4-((8-(3-(1H-1,2,3-triazol-1-yl)azetidin-1-yl)-5-isopropylisoquinolin-3-yl)amino)pyridin-2-yl)-4-methoxypiperidin-3-ol or (3R,4R)-1-(4-((8-(3-(1H-1,2,3-triazol-1-yl)azetidin-1-yl)-5-isopropylisoquinolin-3-yl)amino)pyridin-2-yl)-4-methoxypiperidin-3-ol]
10 to 20 nM | < 15 nM | CC(C)c1cnc(N2CC[C@]3(C2)CC3(F)F)c2cnc(Nc3ccnc(N4CC[C@@H](O)[C@@](C)(F)C4)n3)cc12 (single isomer, unassigned) [Example 213, (3S,4R)-1-(4-((8-((R)-1,1-difluoro-5-azaspiro[2.4]heptan-5-yl)-5-isopropyl-2,7-naphthyridin-3-yl)amino)pyrimidin-2-yl)-3-fluoro-3-methylpiperidin-4-ol or (3S,4R)-1-(4-((8-((S)-1,1-difluoro-5-azaspiro[2.4]heptan-5-yl)-5-isopropyl-2,7-naphthyridin-3-yl)amino)pyrimidin-2-yl)-3-fluoro-3-methylpiperidin-4-ol]
10 to 20 nM | < 15 nM | C[C@@H]1[C@H](F)CN1c1ncc([C@@H](C)CO)c2cc(Nc3ccnc(N4CC[C@@H](O)[C@@](C)(F)C4)n3)ncc12 (single isomer, unassigned) [Example 210, (3S,4R)-3-fluoro-1-(4-((8-((2R,3R)-3-fluoro-2-methylazetidin-1-yl)-5-((R)-1-hydroxypropan-2-yl)-2,7-naphthyridin-3-yl)amino)pyrimidin-2-yl)-3-methylpiperidin-4-ol or (3S,4R)-3-fluoro-1-(4-((8-((2R,3R)-3-fluoro-2-methylazetidin-1-yl)-5-((S)-1-hydroxypropan-2-yl)-2,7-naphthyridin-3-yl)amino)pyrimidin-2-yl)-3-methylpiperidin-4-ol]
> 50 nM | 30 to 100 nM | CC(C)Oc1cnc(N2CC[C@H]2C)c2cnc(Nc3ccnc(N4CC[C@@H](O)[C@@H](F)C4)n3)cc12 [Example 153, (3S,4R)-3-fluoro-1-(4-((5-isopropoxy-8-((R)-2-methylazetidin-1-yl)-2,7-naphthyridin-3-yl)amino)pyrimidin-2-yl)piperidin-4-ol]
